From ChEMBL document CHEMBL5584237, “Design, synthesis, biological evaluation, and in silico studies of novel pyridopyridine derivatives as anticancer candidates targeting FMS kinase” (Eur J Med Chem, 2024)
Calls of active or inactive are those of the source. No cut-off for these calls is given here.

What was measured:
RXF 393 = experiment: Antiproliferative activity against human RXF 393 cells assessed as cell growth inhibition; assay type: functional
MCF7 = experiment: Antiproliferative activity against human MCF7 cells assessed as cell growth inhibition; assay type: functional
[1] = Selectivity index, ratio of IC50 for human WI-38 cells to IC50 for human OVCAR-4 cells
[2] = Selectivity index, ratio of IC50 for human WI-38 cells to IC50 for human 786-0 cells
[3] = Selectivity index, ratio of IC50 for human HS27 cells to IC50 for human SK-MEL-28 cells
[4] = Selectivity index, ratio of IC50 for human HS27 cells to IC50 for human OVCAR-3 cells
[5] = Selectivity index, ratio of IC50 for human HS27 cells to IC50 for human CAKI-1 cells
[6] = Selectivity index, ratio of IC50 for human HS27 cells to IC50 for human Hs-578T cells
Hep 3B2 = experiment: Cell cycle arrest in human Hep3B cells assessed as upregulation of cyclin B1 expression at 3.38 uM measured after 48 hrs by Western blot analysis; assay type: functional, cell-based

CCN1CCN(c2ccc(NC(=O)Nc3ccc(-c4cc(C(=O)NC(C)C)c5ncccc5n4)cc3)cc2C(F)(F)F)CC1
GI50 (RXF 393): 650 nM
TGI (RXF 393): 1730 nM
GI50 (MCF7): 630 nM
TGI (MCF7): 1500 nM
Ratio IC50 [1]: 5.89
Ratio IC50 [2]: 10.52
Ratio IC50 [3]: 4.47
Ratio IC50 [4]: 3.05
Ratio IC50 [5]: 5.45
Ratio IC50 [6]: 5.22
Activity (Hep 3B2): Active
